Measurements taken from ChEMBL document CHEMBL1141915, “1,3-Dioxo-4-methyl-2,3-dihydro-1H-pyrrolo[3,4-c]quinolines as potent caspase-3 inhibitors” (Bioorg Med Chem Lett, 2005).

Biological target: T1, Caspase-3 (Homo sapiens, UniProt P42574)
T1 sequence (P42574 whole entry): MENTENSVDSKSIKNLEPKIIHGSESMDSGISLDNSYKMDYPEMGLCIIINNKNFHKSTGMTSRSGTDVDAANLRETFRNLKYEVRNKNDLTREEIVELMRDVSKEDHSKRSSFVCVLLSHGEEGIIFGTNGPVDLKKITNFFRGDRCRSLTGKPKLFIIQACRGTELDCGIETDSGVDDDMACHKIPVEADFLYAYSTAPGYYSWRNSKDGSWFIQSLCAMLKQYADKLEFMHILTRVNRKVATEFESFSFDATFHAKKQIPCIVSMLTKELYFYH
Assay: In vitro inhibitory concentration measured against caspase-3

| SMILES | IC50 |
| --- | --- |
| Cc1nc2ccccc2c2c1C(=O)N(C)C2=O | 6.36 µM |
| Cc1nc2ccccc2c2c1C(=O)NC2=O | > 100 µM |
